The experiment deals with HIV-1 (H9IIIB strain). Kind of experiment: Cell-Based HIV Infection Assay Using a Reporter (MT4-GFP cells). The settings on record: Human immunodeficiency virus 1, inflection point (IP) of viral growth inhibition; MT4-GFP cells infected with HIV-1 H9IIIB; 50% normal human serum; mean of at least two independent experiments; read-out: Cell Based IP (50% NHS). The procedure, abridged:
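Inflection point from a 4-parameter curve of % viral growth inhibition, normalised to DMSO and triple-drug controls, using the 48 h/24 h ratio of GFP-positive cells (R0). MT4-GFP cells pre-infected 24 h with HIV-1 H9IIIB at low MOI; compounds tested in 50% normal human serum, 0.4% DMSO; mean of ≥2 experiments.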

As for `COC(=O)N[C@H](C(=O)Nc1cccc(F)c1CCC1CNC2CCCS(=O)(=O)N1C2)[C@@H](c1ccc(Cl)cc1)c1ccc(OC)nc1` (stereo partly drawn) [Example 47, methyl [(1S,2S)-2-(4-chlorophenyl)-1-({2-[2-(2,2-dioxido-2-thia-1,7-diazabicyclo[4.3.1]dec-9-yl)ethyl]-3-fluorophenyl}carbamoyl)-2-(6-methoxypyridin-3-yl)ethyl]carbamate], the EC50 is 18 nM.

With `N[C@H](C(=O)Nc1cccc(F)c1CCC1CNC2CCCS(=O)(=O)N1C2)[C@@H](c1ccc(Cl)cc1)C1CC(F)(F)C1` (stereo partly drawn) [Example 48, (βR)-4-chloro-β-(3,3-difluorocyclobutyl)-N-{2-[2-(2,2-dioxido-2-thia-1,7-diazabicyclo[4.3.1]dec-9-yl)ethyl]-3-fluorophenyl}-L-phenylalaninamide], the EC50 was 33 nM.

In the case of `COC(=O)N[C@H](C(=O)N[C@H]1CCC[C@@H]1CC[C@H]1CN[C@@H]2CCCS(=O)(=O)N1C2)C(c1ccc(F)cc1)c1ccc(F)cc1` [Example 49, methyl [(1S)-1-[bis(4-fluorophenyl)methyl]-2-{[(1S,2R)-2-{2-[(6R,9S)-2,2-dioxido-2-thia-1,7-diazabicyclo[4.3.1]dec-9-yl]ethyl}cyclopentyl]amino}-2-oxoethyl]carbamate], the EC50 amounted to 18 nM.

For `COC(=O)N[C@H](C(=O)N[C@H]1CCC[C@@H]1CC[C@H]1CN[C@@H]2CCCS(=O)(=O)N1C2)[C@@H](c1ccc(F)cc1)C1CCOC(C)(C)C1` (stereo partly drawn) [Example 50, methyl [(1S,2R)-2-(2,2-dimethyltetrahydro-2H-pyran-4-yl)-1-{[(1S,2R)-2-{2-[(6R,9S)-2,2-dioxido-2-thia-1,7-diazabicyclo[4.3.1]dec-9-yl]ethyl}cyclopentyl]carbamoyl}-2-(4-fluorophenyl)ethyl]carbamate], the EC50 is 28 nM.

Turning to `N[C@H](C(=O)Nc1cccc(F)c1CCC1CNC2CCCS(=O)(=O)N1C2)[C@@H](c1ccc(F)cc1)c1cccc(C2CC2)c1` (stereo partly drawn) [Example 51, (βS)-3-cyclopropyl-N-{2-[2-(2,2-dioxido-2-thia-1,7-diazabicyclo[4.3.1]dec-9-yl)ethyl]-3-fluorophenyl}-β-(4-fluorophenyl)-L-phenylalaninamide], the EC50 stood at 20 nM.

With `COC(=O)N[C@H](C(=O)Nc1cccc(F)c1CCC1CNC2CCCS(=O)(=O)N1C2)[C@@H](c1ccc(F)cc1)c1cccc(C2CC2)c1` (stereo partly drawn) [Example 52, methyl [(1S,2S)-2-(3-cyclopropylphenyl)-1-({2-[2-(2,2-dioxido-2-thia-1,7-diazabicyclo[4.3.1]dec-9-yl)ethyl]-3-fluorophenyl}carbamoyl)-2-(4-fluorophenyl)ethyl]carbamate], the EC50 was 72 nM.

Consider `N[C@H](C(=O)Nc1cccc(F)c1CCC1CNC2CCCS(=O)(=O)N1C2)[C@@H](c1ccc(Cl)cc1)C1CCC(F)(F)CC1` (stereo partly drawn) [Example 53, (βR)-4-chloro-β-(4,4-difluorocyclohexyl)-N-{2-[2-(2,2-dioxido-2-thia-1,7-diazabicyclo[4.3.1]dec-9-yl)ethyl]-3-fluorophenyl}-L-phenylalaninamide], for which the EC50 is 24 nM.

For the compound `CC1(C)CC([C@H](c2ccc(F)cc2)[C@H](N)C(=O)N[C@H]2CCC[C@@H]2CC[C@H]2CN[C@@H]3CCCS(=O)(=O)N2C3)CCO1` (stereo partly drawn) [Example 54, (βR)-β-(2,2-dimethyltetrahydro-2H-pyran-4-yl)-N-[(1S,2R)-2-{2-[(6R,9S)-2,2-dioxido-2-thia-1,7-diazabicyclo[4.3.1]dec-9-yl]ethyl}cyclopentyl]-4-fluoro-L-phenylalaninamide], the EC50 is 180 nM.

As to `CC1(C)CC([C@H](c2ccc(Cl)cc2)[C@H](N)C(=O)N[C@H]2CCC[C@@H]2CC[C@H]2CN[C@@H]3CCCS(=O)(=O)N2C3)CCO1` (stereo partly drawn) [Example 55, (βR)-4-chloro-β-(2,2-dimethyltetrahydro-2H-pyran-4-yl)-N-[(1S,2R)-2-{2-[(6R,9S)-2,2-dioxido-2-thia-1,7-diazabicyclo[4.3.1]dec-9-yl]ethyl}cyclopentyl]-L-phenylalaninamide], the EC50 was determined as 80 nM.

As for `COC(=O)N[C@H](C(=O)N[C@H]1CCC[C@@H]1CC[C@H]1CN[C@@H]2CCCS(=O)(=O)N1C2)[C@@H](c1ccc(F)cc1)c1cc(F)cc(F)c1` [Example 56, methyl [(1S,2S)-2-(3,5-difluorophenyl)-1-{[(1S,2R)-2-{2-[(6R,9S)-2,2-dioxido-2-thia-1,7-diazabicyclo[4.3.1]dec-9-yl]ethyl}cyclopentyl]carbamoyl}-2-(4-fluorophenyl)ethyl]carbamate], the EC50 was found to be 24 nM.

Turning to `N[C@H](C(=O)N[C@H]1CCC[C@@H]1CC[C@H]1CN[C@@H]2CCCS(=O)(=O)N1C2)[C@@H](c1ccc(F)cc1)c1cc(F)cc(F)c1` [Example 57, (βS)-β-(3,5-difluorophenyl)-N-[(1S,2R)-2-{2-[(6R,9S)-2,2-dioxido-2-thia-1,7-diazabicyclo[4.3.1]dec-9-yl]ethyl}cyclopentyl]-4-fluoro-L-phenylalaninamide], the EC50 is 27 nM.

Regarding `COC(=O)N[C@H](C(=O)N[C@H]1CCC[C@@H]1CC[C@H]1CN[C@@H]2CCCS(=O)(=O)N1C2)[C@@H](c1ccc(Cl)cc1)C1CCOCC1` [Example 58, methyl [(1S,2R)-2-(4-chlorophenyl)-1-{[(1S,2R)-2-{2-[(6R,9S)-2,2-dioxido-2-thia-1,7-diazabicyclo[4.3.1]dec-9-yl]ethyl}cyclopentyl]carbamoyl}-2-(tetrahydro-2H-pyran-4-yl)ethyl]carbamate], the EC50 turned out to be 59 nM.

Consider `N[C@H](C(=O)Nc1cccc(F)c1CCC1CNC2CCCS(=O)(=O)N1C2)[C@@H](c1ccc(F)cc1)c1ccc(C2CC2)cc1` (stereo partly drawn) [Example 59, (βR)-4-cyclopropyl-N-{2-[2-(2,2-dioxido-2-thia-1,7-diazabicyclo[4.3.1]dec-9-yl)ethyl]-3-fluorophenyl}-β-(4-fluorophenyl)-L-phenylalaninamide], for which the EC50 is 16 nM.

As to `COC(=O)N[C@H](C(=O)Nc1cccc(F)c1CCC1CNC2CCCS(=O)(=O)N1C2)[C@@H](c1ccc(F)cc1)c1ccc(C2CC2)cc1` (stereo partly drawn) [Example 60, methyl [(1S,2R)-2-(4-cyclopropylphenyl)-1-({2-[2-(2,2-dioxido-2-thia-1,7-diazabicyclo[4.3.1]dec-9-yl)ethyl]-3-fluorophenyl}carbamoyl)-2-(4-fluorophenyl)ethyl]carbamate], the EC50 stood at 9.9 nM.

On to `N[C@H](C(=O)Nc1cccc(F)c1CCC1CNC2CCCS(=O)(=O)N1C2)[C@H](c1ccc(F)cc1)C1CCC(F)(F)CC1` (stereo partly drawn) [Example 61, (βS)-β-(4,4-difluorocyclohexyl)-N-{2-[2-(2,2-dioxido-2-thia-1,7-diazabicyclo[4.3.1]dec-9-yl)ethyl]-3-fluorophenyl}-4-fluoro-L-phenylalaninamide], for which the EC50 worked out at 160 nM.

In the case of `COC(=O)N[C@H](C(=O)Nc1cccc(F)c1CCC1CNC2CCCS(=O)(=O)N1C2)[C@H](c1ccc(F)cc1)C1CCC(F)(F)CC1` (stereo partly drawn) [Example 62, methyl [(1S,2S)-2-(4,4-difluorocyclohexyl)-1-({2-[2-(2,2-dioxido-2-thia-1,7-diazabicyclo[4.3.1]dec-9-yl)ethyl]-3-fluorophenyl}carbamoyl)-2-(4-fluorophenyl)ethyl]carbamate], the EC50 came to 190 nM.

For the compound `COC(=O)N[C@H](C(=O)Nc1cccc(F)c1CCC1CNC2CCCS(=O)(=O)N1C2)[C@@H](c1ccc(F)cc1)c1cccc(C(F)(F)F)c1` (stereo partly drawn) [Example 63, methyl [(1S)-2-({2-[2-(2,2-dioxido-2-thia-1,7-diazabicyclo[4.3.1]dec-9-yl)ethyl]-3-fluorophenyl}amino)-1-{(S)-(4-fluorophenyl)[3-(trifluoromethyl)phenyl]methyl}-2-oxoethyl]carbamate], the EC50 stood at 14 nM.

With `N[C@H](C(=O)Nc1cccc(F)c1CCC1CNC2CCCS(=O)(=O)N1C2)[C@H](c1ccc(F)cc1)C1CC(F)(F)C1` (stereo partly drawn) [Example 64, (βS)-β-(3,3-difluorocyclobutyl)-N-{2-[2-(2,2-dioxido-2-thia-1,7-diazabicyclo[4.3.1]dec-9-yl)ethyl]-3-fluorophenyl}-4-fluoro-L-phenylalaninamide], the EC50 worked out at 260 nM.

Regarding `COC(=O)N[C@H](C(=O)Nc1cccc(F)c1CCC1CNC2CCCS(=O)(=O)N1C2)[C@H](c1ccc(F)cc1)C1CC(F)(F)C1` (stereo partly drawn) [Example 65, methyl [(1S,2S)-2-(3,3-difluorocyclobutyl)-1-({2-[2-(2,2-dioxido-2-thia-1,7-diazabicyclo[4.3.1]dec-9-yl)ethyl]-3-fluorophenyl}carbamoyl)-2-(4-fluorophenyl)ethyl]carbamate], the EC50 was 47 nM.

On to `COc1ccc([C@H](c2ccc(F)c(F)c2)[C@H](N)C(=O)Nc2cccc(F)c2CCC2CNC3CCCS(=O)(=O)N2C3)cn1` (stereo partly drawn) [Example 66, (βS)-N-{2-[2-(2,2-dioxido-2-thia-1,7-diazabicyclo[4.3.1]dec-9-yl)ethyl]-3-fluorophenyl}-3,4-difluoro-β-(6-methoxypyridin-3-yl)-L-phenylalaninamide], for which the EC50 was 8.2 nM.

Regarding `COc1cc([C@H](c2ccc(Cl)c(F)c2)[C@H](N)C(=O)Nc2cccc(F)c2CCC2CNC3CCCS(=O)(=O)N2C3)ccn1` (stereo partly drawn) [Example 67, (βR)-4-chloro-N-{2-[2-(2,2-dioxido-2-thia-1,7-diazabicyclo[4.3.1]dec-9-yl)ethyl]-3-fluorophenyl}-3-fluoro-β-(2-methoxypyridin-4-yl)-L-phenylalaninamide], the EC50 was 4.5 nM.

Regarding `COC(=O)N[C@H](C(=O)Nc1cccc(F)c1CCC1CNC2CCCS(=O)(=O)N1C2)[C@H](c1ccnc(OC)c1)c1ccc(Cl)c(F)c1` (stereo partly drawn) [Example 69, methyl [(1S,2R)-2-(4-chloro-3-fluorophenyl)-1-({2-[2-(2,2-dioxido-2-thia-1,7-diazabicyclo[4.3.1]dec-9-yl)ethyl]-3-fluorophenyl}carbamoyl)-2-(2-methoxypyridin-4-yl)ethyl]carbamate], the EC50 turned out to be 13 nM.

(Values after US10138255B2, “Piperazine derivatives as HIV protease inhibitors” (Merck Sharp & Dohme Corp., priority 2014, dated 2018).)
